In test [1] the target is D-galactose-6-phosphate isomerase LacAB from Lactobacillus rhamnosus (heterodimer of LacA and LacB) (Lactobacillus rhamnosus). The test is described as follows: SEC-MALS; purified LacAB on Superdex 200 10/300 GL, 50 mM Tris-HCl pH 7.5, 200 mM NaCl, 1 mL/min. In general terms: In gel filtration, larger molecules generally elute earlier.
For test [2], the target named is T1, LacAB (D-galactose-6-phosphate isomerase) (Lacticaseibacillus rhamnosus, UniProt A0A7S7FMU0+A0ABF7SXF6).
T1 construct: gene LRHM_0645; full-length LacA (142 residues) and LacB (172 residues) co-expressed in E. coli BL21(DE3), pQE-80L, N-terminal His6
Briefly: X-ray crystal structure, soaking. The settings on record: converted in the crystal, active site. The format is binding.

The target in test [3] is T1, LacAB (D-galactose-6-phosphate isomerase). Briefly: conversion to D-psicose in soaked crystal. In kind it is binding. The settings on record: 40 mM soak for 2 hr; D-psicose seen in the electron density.

In test [1], “D-galactose-6-phosphate isomerase LacAB from Lactobacillus rhamnosus (heterodimer of LacA and LacB) (from UniProt A0ABF7SXF6 1-172) (complex)” gave a stoichiometry N of 4. Take `OCC1(O)OC[C@@H](O)[C@@H](O)[C@H]1O` (stereo partly drawn) [D-psicose]: the “X-ray crystal structure, soaking” value in test [2] (crystal soaked in 40 mM D-allose for 2 hr) is recorded as 4LFM for its complex with D-psicose.

In the case of `OC[C@H]1OC(O)[C@H](O)[C@H](O)[C@@H]1O` (stereo partly drawn) [D-allose], the “conversion to D-psicose in soaked crystal” value in test [3] was “D-allose and D-ribose revealed that the substrates are converted to D-psicose and D-ribulose, respectively”. As to `O=C(CO)[C@H](O)[C@H](O)CO` [D-ribulose], the “X-ray crystal structure, soaking” value in test [2] (crystal soaked in 45 mM D-ribose for 2 hr) is given as 4LFN for its complex with D-ribulose.

One may read the stoichiometry N as a count of units in the complex or per binding partner.
